Measured values reported in ChEMBL document CHEMBL3045696, “CsFCelite catalyzed facile N-alkylation of 2(3H)-benzoxazolones and antimicrobial properties of 2-substituted benzoxazole and 3-substituted-2(3H)-benzoxazolone derivatives” (2011).
Values after ≈ are worked out from the molar mass of the structure shown. Active and inactive are the calls of the source. No cut-off for these calls is given here.

Assays:
Assay type in all cases: functional
Saccharomyces cerevisiae [1] = test: Antimicrobial activity against Saccharomyces cerevisiae MTCC 36 at 150 ug after 48 hr by agar well diffusion method; conditions: for zone of inhibition at 150 µg/disc: MTCC 36, 48 h, read-out: IZ
Candida albicans [2] = test: Antimicrobial activity against Candida albicans MTCC 227 at 150 ug after 48 hr by agar well diffusion method; conditions: for zone of inhibition at 150 µg/disc: MTCC 227, 48 h, read-out: IZ
Rhizopus arrhizus [3] = test: Antimicrobial activity against Rhizopus oryzae MTCC 262 at 150 ug after 48 hr by agar well diffusion method; conditions: for zone of inhibition at 150 µg/disc: MTCC 262, 48 h, read-out: IZ
Staphylococcus aureus = test: Antimicrobial activity against Staphylococcus aureus MTCC 96 by broth dilution method
Saccharomyces cerevisiae [4] = test: Antimicrobial activity against Saccharomyces cerevisiae MTCC 36 at 100 ug after 48 hr by agar well diffusion method; conditions: for zone of inhibition at 100 µg/disc: MTCC 36, 48 h, read-out: IZ
Candida albicans [5] = test: Antimicrobial activity against Candida albicans MTCC 227 at 100 ug after 48 hr by agar well diffusion method; conditions: for zone of inhibition at 100 µg/disc: MTCC 227, 48 h, read-out: IZ
Klebsiella pneumoniae = test: Antimicrobial activity against Klebsiella pneumoniae MTCC 618 by broth dilution method
Escherichia coli = test: Antimicrobial activity against Escherichia coli MTCC 443 by broth dilution method
Rhizopus arrhizus [6] = test: Antimicrobial activity against Rhizopus oryzae MTCC 262 at 100 ug after 48 hr by agar well diffusion method; conditions: for zone of inhibition at 100 µg/disc: MTCC 262, 48 h, read-out: IZ
[7] = system: Staphylococcus epidermidis; test: Antimicrobial activity against Staphylococcus epidermidis by broth dilution method
Aspergillus niger [8] = test: Antimicrobial activity against Aspergillus niger MTCC 282 at 150 ug after 48 hr by agar well diffusion method; conditions: for zone of inhibition at 150 µg/disc: MTCC 282, 48 h, read-out: IZ
Bacillus subtilis = test: Antimicrobial activity against Bacillus subtilis MTCC 441 by broth dilution method
Pseudomonas aeruginosa = test: Antimicrobial activity against Pseudomonas aeruginosa MTCC 741 by broth dilution method
Aspergillus niger [9] = test: Antimicrobial activity against Aspergillus niger MTCC 282 at 100 ug after 48 hr by agar well diffusion method; conditions: for zone of inhibition at 100 µg/disc: MTCC 282, 48 h, read-out: IZ

Compound	zone of inhibition at 150 µg/disc (Saccharomyces cerevisiae [1])	zone of inhibition at 150 µg/disc (Candida albicans [2])	zone of inhibition at 150 µg/disc (Rhizopus arrhizus [3])	MIC (Staphylococcus aureus)	zone of inhibition at 100 µg/disc (Saccharomyces cerevisiae [4])	zone of inhibition at 100 µg/disc (Candida albicans [5])	MIC (Klebsiella pneumoniae)	MIC (Escherichia coli)	zone of inhibition at 100 µg/disc (Rhizopus arrhizus [6])	MIC [7]	zone of inhibition at 150 µg/disc (Aspergillus niger [8])	MIC (Bacillus subtilis)	MIC (Pseudomonas aeruginosa)	zone of inhibition at 100 µg/disc (Aspergillus niger [9])	Activity (Saccharomyces cerevisiae [1])	Activity (Saccharomyces cerevisiae [4])	Activity (Candida albicans [5])	Activity (Aspergillus niger [8])	Activity (Aspergillus niger [9])	Activity (Rhizopus arrhizus [6])	also measured
O=c1oc2ccc(Cl)cc2n1CCCN1CCOCC1	10 mm	10 mm	13 mm	75 µg/mL (≈ 253 µM)	8 mm	8 mm	75 µg/mL (≈ 253 µM)	37.5 µg/mL (≈ 126 µM)	10 mm	75 µg/mL (≈ 253 µM)	10 mm	75 µg/mL (≈ 253 µM)	37.5 µg/mL (≈ 126 µM)	8 mm	–	–	–	–	–	–	–
c1cnc(N2CCN(c3nc4ccccc4o3)CC2)nc1	–	–	10 mm	150 µg/mL (≈ 533 µM)	–	–	75 µg/mL (≈ 267 µM)	150 µg/mL (≈ 533 µM)	8 mm	150 µg/mL (≈ 533 µM)	–	150 µg/mL (≈ 533 µM)	75 µg/mL (≈ 267 µM)	–	inactive	inactive	inactive	inactive	inactive	–	Activity (Candida albicans [2]): inactive
CC(C)=CCn1c(=O)oc2ccc(Cl)cc21	10 mm	10 mm	9 mm	150 µg/mL (≈ 631 µM)	8 mm	7 mm	150 µg/mL (≈ 631 µM)	150 µg/mL (≈ 631 µM)	–	75 µg/mL (≈ 316 µM)	11 mm	150 µg/mL (≈ 631 µM)	75 µg/mL (≈ 316 µM)	8 mm	–	–	–	–	–	inactive	–
CN[C@@H]1[C@H](O[C@H]2[C@H](O[C@H]3[C@H](O)[C@@H](O)[C@H](N=C(N)N)[C@@H](O)[C@@H]3N=C(N)N)O[C@@H](C)[C@]2(O)C=O)O[C@@H](CO)[C@H](O)[C@H]1O [STREPTOMYCIN]	–	–	–	6.25 µg/mL (≈ 10.7 µM)	–	–	3.12 µg/mL (≈ 5.37 µM)	6.25 µg/mL (≈ 10.7 µM)	–	3.12 µg/mL (≈ 5.37 µM)	–	6.25 µg/mL (≈ 10.7 µM)	1.56 µg/mL (≈ 2.69 µM)	–	–	–	–	–	–	–	–
c1ccc(N2CCN(c3nc4ccccc4o3)CC2)nc1	–	10 mm	–	150 µg/mL (≈ 535 µM)	–	8 mm	150 µg/mL (≈ 535 µM)	150 µg/mL (≈ 535 µM)	–	150 µg/mL (≈ 535 µM)	–	150 µg/mL (≈ 535 µM)	75 µg/mL (≈ 268 µM)	–	inactive	inactive	–	inactive	inactive	inactive	Activity (Rhizopus arrhizus [3]): inactive
O=c1oc2ccc(Cl)cc2n1CCCN1CCN(c2ccccc2)CC1	–	–	–	150 µg/mL (≈ 403 µM)	–	–	150 µg/mL (≈ 403 µM)	150 µg/mL (≈ 403 µM)	–	150 µg/mL (≈ 403 µM)	–	150 µg/mL (≈ 403 µM)	150 µg/mL (≈ 403 µM)	–	inactive	inactive	inactive	inactive	inactive	inactive	Activity (Candida albicans [2]): inactive; Activity (Rhizopus arrhizus [3]): inactive
C=CCn1c(=O)oc2ccc(Cl)cc21	–	8 mm	–	150 µg/mL (≈ 716 µM)	–	–	37.5 µg/mL (≈ 179 µM)	150 µg/mL (≈ 716 µM)	–	150 µg/mL (≈ 716 µM)	10 mm	150 µg/mL (≈ 716 µM)	75 µg/mL (≈ 358 µM)	8 mm	inactive	inactive	inactive	–	–	inactive	Activity (Rhizopus arrhizus [3]): inactive
O=c1oc2ccc(Cl)cc2n1CCCCl	15 mm	19 mm	15 mm	150 µg/mL (≈ 610 µM)	12 mm	14 mm	150 µg/mL (≈ 610 µM)	150 µg/mL (≈ 610 µM)	11 mm	150 µg/mL (≈ 610 µM)	17 mm	150 µg/mL (≈ 610 µM)	150 µg/mL (≈ 610 µM)	13 mm	–	–	–	–	–	–	–
C#CCn1c(=O)oc2ccc(Cl)cc21	18 mm	11 mm	19 mm	75 µg/mL (≈ 361 µM)	14 mm	8 mm	75 µg/mL (≈ 361 µM)	37.5 µg/mL (≈ 181 µM)	15 mm	75 µg/mL (≈ 361 µM)	18 mm	75 µg/mL (≈ 361 µM)	37.5 µg/mL (≈ 181 µM)	15 mm	–	–	–	–	–	–	–
c1ccc(N2CCN(c3nc4ccccc4o3)CC2)cc1	–	9 mm	–	150 µg/mL (≈ 537 µM)	–	–	150 µg/mL (≈ 537 µM)	75 µg/mL (≈ 268 µM)	–	150 µg/mL (≈ 537 µM)	–	150 µg/mL (≈ 537 µM)	75 µg/mL (≈ 268 µM)	–	inactive	inactive	inactive	inactive	inactive	inactive	Activity (Rhizopus arrhizus [3]): inactive
